In US8278032B2, “Transporter protein in mammal and utilization of the same” (priority 2005, dated 2012):
Like-named read-outs stand apart in the source and are kept apart here.

Legend:
[1] = molecular target: T1, mMATE1 (Mus musculus, UniProt Q8K0H1); test: Inhibition of RI-labeled TEA uptake in HEK293 cells expressing mMATE1; format: cell-based; conditions: for remaining activity at 1000 µM: compound 1 mM;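 as to all read-outs here: transfected HEK293 cells held 5 min at 37 °C before tracer addition, uptake read as radioactivity retained on a 0.45-µm membrane filter, mean ± SD of three to nine experiments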
T1 construct: expressed in transfected cells; host or cells: HEK293
T1 sequence (Q8K0H1 with tags, fused parts or gaps): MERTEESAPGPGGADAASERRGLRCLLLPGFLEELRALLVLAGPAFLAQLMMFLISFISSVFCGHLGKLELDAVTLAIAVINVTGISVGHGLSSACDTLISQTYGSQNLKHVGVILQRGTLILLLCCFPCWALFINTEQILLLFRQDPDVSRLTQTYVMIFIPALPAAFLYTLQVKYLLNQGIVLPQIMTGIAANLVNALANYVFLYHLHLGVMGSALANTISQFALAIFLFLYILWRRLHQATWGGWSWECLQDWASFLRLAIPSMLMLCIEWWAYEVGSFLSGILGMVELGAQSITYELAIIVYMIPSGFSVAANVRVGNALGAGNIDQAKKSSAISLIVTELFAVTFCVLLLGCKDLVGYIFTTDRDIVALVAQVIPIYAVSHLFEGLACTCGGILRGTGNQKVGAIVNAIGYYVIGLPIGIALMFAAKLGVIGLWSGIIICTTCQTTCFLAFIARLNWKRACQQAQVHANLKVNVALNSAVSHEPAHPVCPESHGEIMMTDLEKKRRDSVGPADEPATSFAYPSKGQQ

[2] = molecular target: T2, hMATE1 (Homo sapiens, UniProt Q96FL8); test: Inhibition of RI-labeled TEA uptake in HEK293 cells expressing hMATE1; conditions: for Inhibition of TEA uptake activity (in words, summary of Table 1): MATE1 expressing HEK293 cells, 50 μM TEA, pH 8.0
T2 sequence (Q96FL8 1-570): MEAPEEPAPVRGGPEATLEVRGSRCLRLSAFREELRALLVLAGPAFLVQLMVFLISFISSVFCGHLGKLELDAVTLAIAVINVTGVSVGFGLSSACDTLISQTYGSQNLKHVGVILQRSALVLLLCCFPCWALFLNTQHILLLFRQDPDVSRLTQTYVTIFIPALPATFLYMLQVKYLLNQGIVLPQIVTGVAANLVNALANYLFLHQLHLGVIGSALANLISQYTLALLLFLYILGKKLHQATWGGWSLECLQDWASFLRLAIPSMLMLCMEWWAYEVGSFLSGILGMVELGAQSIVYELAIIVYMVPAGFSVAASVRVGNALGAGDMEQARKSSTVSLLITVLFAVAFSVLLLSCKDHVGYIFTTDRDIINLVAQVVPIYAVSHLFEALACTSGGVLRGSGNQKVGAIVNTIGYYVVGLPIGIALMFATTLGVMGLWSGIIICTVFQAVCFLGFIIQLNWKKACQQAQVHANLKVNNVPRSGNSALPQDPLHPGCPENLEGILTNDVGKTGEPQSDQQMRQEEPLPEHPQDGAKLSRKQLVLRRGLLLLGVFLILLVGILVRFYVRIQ

[3] = molecular target: T2, hMATE1; conditions: for Km: read-out: Km value of transport, substrate transport, cells expressing wild type MATE1 (TEA: FIG. 9(c)), MPP: MATE1, species not stated
[4] = molecular target: T2, hMATE1; conditions: radioactive nicotine 2 μM, FIG. 10
[5] = molecular target: T2, hMATE1; conditions: 1 mM 14C-TEA, pH of extracellular fluid varied, FIG. 12
[6] = compound 10 mM, 50 μM RI-labeled TEA, pH 8.0, HEK293 cells expressing mMATE1
[7] = compound 10 mM, 50 μM RI-labeled TEA, pH 8.0, HEK293 cells expressing hMATE1
[8] = compound 5 mM, 50 μM RI-labeled TEA, pH 8.0, HEK293 cells expressing mMATE1
[9] = compound 0.1 mM, 50 μM RI-labeled TEA, pH 8.0, HEK293 cells expressing hMATE1
[10] = compound 5 mM, 50 μM RI-labeled TEA, pH 8.0, HEK293 cells expressing hMATE1
[11] = HEK293, pH 8, read-out: TEA uptake activity percent taking the level with addition of no compound as 100% (% ± S.D.)
[12] = 50 μM RI-labeled TEA, pH 8.0, HEK293 cells expressing mMATE1, read-out: TEA uptake activity percent taking the level with addition of no compound as 100% (% ± S.D.)
[13] = compound 1 mM, 50 μM RI-labeled TEA, pH 8.0, HEK293 cells expressing hMATE1
[14] = compound 0.1 mM, 50 μM RI-labeled TEA, pH 8.0, HEK293 cells expressing mMATE1, read-out: TEA uptake activity percent taking the level with addition of no compound as 100% (% ± S.D.)
[15] = compound 0.01 mM, 50 μM RI-labeled TEA, pH 8.0, HEK293 cells expressing hMATE1

N=C(N)N [Guanidine]
remaining activity at 500 µM ([1]; compound 0.5 mM, 50 μM RI-labeled TEA, pH 8.0, HEK293 cells expressing mMATE1, read-out: TEA uptake activity percent taking the level with addition of no compound as 100% (% ± S.D.)): 96 ± 8.5% | TEA uptake activity percent taking the level with addition of no compound as 100% (% ± S.D.) ([2]; compound 0.5 mM, 50 μM RI-labeled TEA, pH 8.0, HEK293 cells expressing hMATE1): 93.4 ± 7.6%

CC(O)C(=O)O (centres unmarked) [Lactate]
TEA uptake activity percent taking the level with addition of no compound as 100% (% ± S.D.) [1, 6]: 93.9 ± 3.2% | TEA uptake activity percent taking the level with addition of no compound as 100% (% ± S.D.) [2, 7]: 103.8 ± 8.8%

C[n+]1ccc(-c2ccccc2)cc1 [MPP, 1-methyl-4-phenylpyridinium]
Vmax of transport ([3]; MPP as substrate, MATE1, species not stated): 170 pmol/min/mg protein | Km [3]: 16 µM | TEA uptake activity percent taking the level with addition of no compound as 100% (% ± S.D.) ([1]; compound 0.1 mM, 50 μM RI-labeled TEA, pH 8.0, HEK293 cells expressing mMATE1): 33.1 ± 9.5% | TEA uptake activity percent taking the level with addition of no compound as 100% (% ± S.D.) [1, 8]: 0.0 ± 2.1% | Inhibition of TEA uptake activity (in words, summary of Table 1) [2]: inhibited | TEA uptake activity percent taking the level with addition of no compound as 100% (% ± S.D.) [2, 9]: 67.4 ± 8.4% | TEA uptake activity percent taking the level with addition of no compound as 100% (% ± S.D.) [2, 10]: 0.0 ± 0.3%

COc1ccc2[nH]cc(CCNC(C)=O)c2c1 [Melatonin]
remaining activity at 100 µM [1, 11]: 51.4 ± 0.8% | Inhibition of TEA uptake activity (in words, summary of Table 1) [2]: inhibited | TEA uptake activity percent taking the level with addition of no compound as 100% (% ± S.D.) [2, 9]: 85.0 ± 4.0%

CNC(=O)c1cccnc1 [NMN, N-methylnicotinamide]
remaining activity at 1000 µM [1, 12]: 115 ± 8.9% | TEA uptake activity percent taking the level with addition of no compound as 100% (% ± S.D.) [2, 13]: 93.5 ± 1.9%

CN1CCCC1c1cccnc1 (centres unmarked) [Nicotine]
Nicotine transport by MATE1 (in words) [4]: functioning as a nicotine transporter | remaining activity at 100 µM [1, 14]: 91.9 ± 3.1% | remaining activity at 5000 µM ([1]; compound 5 mM, 50 μM RI-labeled TEA, pH 8.0, HEK293 cells expressing mMATE1, read-out: TEA uptake activity percent taking the level with addition of no compound as 100% (% ± S.D.)): 36.7 ± 3.1% | Inhibition of TEA uptake activity (in words, summary of Table 1) [2]: mildly inhibited | TEA uptake activity percent taking the level with addition of no compound as 100% (% ± S.D.) [2, 9]: 63.7 ± 5.0% | TEA uptake activity percent taking the level with addition of no compound as 100% (% ± S.D.) [2, 10]: 5.8 ± 4.3%

Nc1ccc(C(=O)NCC(=O)O)cc1 [PAH]
TEA uptake activity percent taking the level with addition of no compound as 100% (% ± S.D.) [1, 8]: 94.7 ± 9.1% | TEA uptake activity percent taking the level with addition of no compound as 100% (% ± S.D.) [2, 10]: 110.3 ± 2.7%

CCCN(CCC)S(=O)(=O)c1ccc(C(=O)O)cc1 [Probenecid]
remaining activity at 1000 µM [1, 12]: 93.7 ± 11.9% | TEA uptake activity percent taking the level with addition of no compound as 100% (% ± S.D.) [2, 13]: 108.5 ± 7.9%

CCN(CC)CCNC(=O)c1ccc(N)cc1 [Procainamide]
remaining activity at 100 µM [1, 11]: 65.7 ± 8.2% | TEA uptake activity percent taking the level with addition of no compound as 100% (% ± S.D.) [2, 9]: 62.6 ± 0.8%

CC(=O)[C@H]1CC[C@H]2[C@@H]3CCC4=CC(=O)CC[C@]4(C)[C@H]3CC[C@]12C [Progesterone]
remaining activity at 100 µM [1, 14]: 9.3 ± 1.6% | Inhibition of TEA uptake activity (in words, summary of Table 1) [2]: inhibited | TEA uptake activity percent taking the level with addition of no compound as 100% (% ± S.D.) [2, 9]: 31.7 ± 5.6%

O=c1c(O)c(-c2ccc(O)c(O)c2)oc2cc(O)cc(O)c12 [Quercetin]
remaining activity at 100 µM [1, 14]: 47.1 ± 0.1% | Inhibition of TEA uptake activity (in words, summary of Table 1) [2]: inhibited | TEA uptake activity percent taking the level with addition of no compound as 100% (% ± S.D.) [2, 9]: 28.2 ± 3.1%

C=C[C@H]1C[N@@]2CC[C@H]1C[C@@H]2[C@@H](O)c1ccnc2ccc(OC)cc12 [Quinidine]
remaining activity at 10 µM ([1]; compound 0.01 mM, 50 μM RI-labeled TEA, pH 8.0, HEK293 cells expressing mMATE1, read-out: TEA uptake activity percent taking the level with addition of no compound as 100% (% ± S.D.)): 74.7 ± 9.8% | remaining activity at 50 µM ([1]; compound 0.05 mM, 50 μM RI-labeled TEA, pH 8.0, HEK293 cells expressing mMATE1, read-out: TEA uptake activity percent taking the level with addition of no compound as 100% (% ± S.D.)): 50.3 ± 5.4% | remaining activity at 100 µM [1, 14]: 26.6 ± 7.3% | Inhibition of TEA uptake activity (in words, summary of Table 1) [2]: strongly inhibited | TEA uptake activity percent taking the level with addition of no compound as 100% (% ± S.D.) [2, 15]: 35.0 ± 2.1% | TEA uptake activity percent taking the level with addition of no compound as 100% (% ± S.D.) ([2]; compound 0.05 mM, 50 μM RI-labeled TEA, pH 8.0, HEK293 cells expressing hMATE1): 5.1 ± 8.9% | TEA uptake activity percent taking the level with addition of no compound as 100% (% ± S.D.) [2, 9]: 0.0 ± 4.2%

O=C(O)c1ccccc1O [Salicylate]
TEA uptake activity percent taking the level with addition of no compound as 100% (% ± S.D.) [1, 6]: 92.4 ± 4.3% | TEA uptake activity percent taking the level with addition of no compound as 100% (% ± S.D.) ([2]; pH 8): 97.8 ± 4.8%

O=C(O)CCC(=O)O [Succinate]
TEA uptake activity percent taking the level with addition of no compound as 100% (% ± S.D.) [1, 6]: 95.1 ± 6.3% | TEA uptake activity percent taking the level with addition of no compound as 100% (% ± S.D.) [2, 7]: 108.1 ± 4.2%

CC[N+](CC)(CC)CC [TEA, tetraethylammonium]
Km [3]: 220 µM | TEA uptake activity percent taking the level with addition of no compound as 100% (% ± S.D.) [1, 8]: 0.0 ± 7. % | Uptake of TEA into liposome containing MATE polypeptide (in words) [5]: pH-dependent uptake of TEA was observed | TEA uptake activity percent taking the level with addition of no compound as 100% (% ± S.D.) ([2]; pH 8): 0.7 ± 1.8%

C[C@]12CC[C@H]3[C@@H](CCC4=CC(=O)CC[C@@]43C)[C@@H]1CC[C@@H]2O [Testosterone]
remaining activity at 1 µM [1, 11]: 67 ± 8.7% | remaining activity at 10 µM [1, 11]: 44.7 ± 3% | remaining activity at 100 µM [1, 11]: 11.5 ± 1.1% | Inhibition of TEA uptake activity (in words, summary of Table 1) [2]: inhibited | TEA uptake activity percent taking the level with addition of no compound as 100% (% ± S.D.) ([2]; compound 0.001 mM, 50 μM RI-labeled TEA, pH 8.0, HEK293 cells expressing hMATE1): 99.6 ± 4.3% | TEA uptake activity percent taking the level with addition of no compound as 100% (% ± S.D.) [2, 15]: 64.5 ± 14.7% | TEA uptake activity percent taking the level with addition of no compound as 100% (% ± S.D.) [2, 9]: 38.8 ± 3.2%

O=c1[nH]c(=O)c2[nH]c(=O)[nH]c2[nH]1 [Uric acid]
remaining activity at 1000 µM [1, 12]: 109 ± 6.4% | Inhibition of TEA uptake activity (in words, summary of Table 1) [2]: not inhibited | TEA uptake activity percent taking the level with addition of no compound as 100% (% ± S.D.) [2, 13]: 107.8 ± 2.7%

Rhodamine 123 [Rhodamine123]
TEA uptake activity percent taking the level with addition of no compound as 100% (% ± S.D.) ([1]; compound 0.01 mM, 50 μM RI-labeled TEA, pH 8.0, HEK293 cells expressing mMATE1): 0.5 ± 6.2% | Inhibition of TEA uptake activity (in words, summary of Table 1) [2]: inhibited | TEA uptake activity percent taking the level with addition of no compound as 100% (% ± S.D.) [2, 15]: 5.0 ± 6.4%
